# Laboratory results published in patent US8575107B2, “Clusterin derived peptide” (Compugen Ltd., priority 2008, dated 2013).
# Experiments:
# [1] = test system: MCF-7 breast cancer cell lines; assay: MTT assay, CGEN-CL1 and/or paclitaxel on MCF-7 cells; type: cell-based
# Description: (§1) 20 μl of MTT (3-(4,5-Dimethyl-2-thiazolyl)-2,5-diphenyl-2H-tetrazolium bromide) solution (Sigma Cat#M5655, lot#085k5322, 1 gr was dissolved in 200 ml H2O and filtered, giving a final concentration of 5 mg/ml) was added to each well and incubated for 4 hours at 37° C. after which the medium was vacuumed and 100 μl of DMSO was added to each well. Absorbance was measured in an ELISA reader at 492 nm.
# (§2) A549, PC3 and MCF7 cells were seeded at 6000, 8000 and 10,000 cells per well respectively in 150 μl of media (DMEM medium+5% FBS) in 96 well plates.
# (§3) Paclitaxel (Sigma T7402, Lot. 036k1217, Mw 853.9, 5 mg dissolved in 585 μl DMSO to a stock concentration of 10 mM, stored at −20° C.) and/or CGEN-CL1 (1 mg dissolved in 250 μl of sodium bi-carbonate to a stock concentration of 4 mg/ml) were added to the wells in 25 μl of medium (final volume of 200 μl) as detailed in Table 3. The relative growth was normalized to controls where neither paclitaxel nor CGEN-CL1 was added to wells.
# (§4) An MTT assay was performed as described above in Example 2.
# [2] = test system: lung carcinoma cell line A549; assay: MTT assay, CGEN-CL1 and/or paclitaxel on A549 cells; type: cell-based, human; details: single agent
# Description: as §1, §2, §3, §4
smiles,measurement,setting,value
"CC(=O)O[C@H]1C(=O)[C@@]2(C)[C@H]([C@H](OC(=O)c3ccccc3)[C@]3(O)C[C@H](OC(=O)[C@H](O)[C@@H](NC(=O)c4ccccc4)c4ccccc4)C(C)=C1C3(C)C)[C@]1(OC(C)=O)CO[C@@H]1C[C@@H]2O [Paclitaxel, reference compound]",Relative Growth,[1]; Paclitaxel 2.25 nM alone,0.88
same,Relative Growth,[1]; Paclitaxel 30.00 nM alone,0.49
same,maximal effect (inhibition) alone,[2],50%
